Measurements published in PubChem BioAssay AID248 (DTP/NCI, 2004).
“And” between values parts separate entries of the source, which are not always exact repeats. Equal values may be shown once. Toxic doses and inconclusive results are not listed. No stated cut-off is given here; in the data, active means T/C of 150% or more; inactive means T/C below 125%.

Tested on: L1210 leukemia ip in BDF1 mice, survival T/C
Assay: NCI In Vivo Anticancer Drug Screen. Data for tumor model L1210 Leukemia (intraperitoneal) in B6D2F1 (BDF1) mice
Settings: endpoint: mean survival time, higher = longer survival
Procedure, shortened: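 Transplanted-tumor mice were given test agent; controls received vehicle only. Survival readings from the two groups were divided (treated over control).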

[1] = dose: 100.0 mg/kg/injection, schedule: Q01DX001 (ip), vehicle: saline
[2] = dose: 200.0 mg/kg/injection, schedule: Q01DX001 (ip), vehicle: saline
[3] = dose: 400.0 mg/kg/injection, schedule: Q01DX001 (ip), vehicle: saline
[4] = dose: 100.0 mg/kg/injection, schedule: Q04DX003 (ip), vehicle: Klucel (hydroxypropylcellulose) (HPC)
[5] = dose: 200.0 mg/kg/injection, schedule: Q04DX003 (ip), vehicle: Klucel (hydroxypropylcellulose) (HPC)
[6] = dose: 400.0 mg/kg/injection, schedule: Q04DX003 (ip), vehicle: Klucel (hydroxypropylcellulose) (HPC)
[7] = dose: 100.0 mg/kg/injection, schedule: Q01DX009 (ip), vehicle: Klucel (hydroxypropylcellulose) (HPC)
[8] = dose: 200.0 mg/kg/injection, schedule: Q01DX009 (ip), vehicle: Klucel (hydroxypropylcellulose) (HPC)
[9] = dose: 400.0 mg/kg/injection, schedule: Q01DX009 (ip), vehicle: Klucel (hydroxypropylcellulose) (HPC)
[10] = dose: 75.0 mg/kg/injection, schedule: Q01DX001 (ip), vehicle: other
[11] = dose: 100.0 mg/kg/injection, schedule: Q04DX003 (ip), vehicle: saline
[12] = dose: 200.0 mg/kg/injection, schedule: Q04DX003 (ip), vehicle: saline
[13] = dose: 100.0 mg/kg/injection, schedule: Q01DX001 (ip), vehicle: saline with Tween-80

Measured: T/C

Cc1cc(N=NC(=N)N)c(C(C)C)cc1NN=C(N)N
inactive: dose: 60.0 mg/kg/injection, schedule: Q01DX Z (oral), vehicle: carboxymethylcellulose (CMC) 106 % of control | dose: 120.0 mg/kg/injection, schedule: Q01DX Z (oral), vehicle: carboxymethylcellulose (CMC) 100 % of control | dose: 480.0 mg/kg/injection, schedule: Q01DX Z (oral), vehicle: carboxymethylcellulose (CMC) 102 % of control

OCc1ncn[nH]1
inactive: [1] 102 % of control | [2] 95 % of control | [3] 107 % of control

O=S(=O)(Cc1ccc(Cl)cc1)Cc1ccc(Cl)cc1
inactive: dose: 100.0 mg/kg/injection, schedule: Q01DX009 (ip), vehicle: saline sonified 93 % of control | [4] 95 % of control | dose: 200.0 mg/kg/injection, schedule: Q01DX009 (ip), vehicle: saline sonified 93 % of control | [5] 92 % of control | dose: 400.0 mg/kg/injection, schedule: Q01DX009 (ip), vehicle: saline sonified 93 % of control | [6] 103 % of control

C[C@]12CC[C@@H]3c4ccc(O)c([N+](=O)[O-])c4CC[C@H]3[C@@H]1CCC2=O
inactive: [7] 97 % of control | [8] 92 % of control

O=C(NCCCCNC(=O)Nc1ccc(C2=NCCN2)cc1)Nc1ccc(C2=NCCN2)cc1
inactive: dose: 8.0 mg/kg/injection, schedule: Q01DX Z (ip), vehicle: carboxymethylcellulose (CMC) 88 % of control | dose: 16.0 mg/kg/injection, schedule: Q01DX Z (ip), vehicle: carboxymethylcellulose (CMC) 92 % of control | dose: 31.0 mg/kg/injection, schedule: Q01DX Z (ip), vehicle: carboxymethylcellulose (CMC) 101 % of control | dose: 62.0 mg/kg/injection, schedule: Q01DX Z (ip), vehicle: carboxymethylcellulose (CMC) 123 % of control | dose: 125.0 mg/kg/injection, schedule: Q01DX Z (ip), vehicle: carboxymethylcellulose (CMC) 112 % of control

CCC1(NS(=O)(=O)c2ccc(N)cc2)C(=O)N(C)C(=O)N(C)C1=O
inactive: [1] 94 % of control | [2] 94 % of control | [3] 91 % of control

O=C(N/N=C/c1cccnc1)c1ccc(O)cc1
inactive: [7] 91 % of control | [8] 96 % of control | [9] 94 % of control

C[n+]1nc2ccccc2c(=Nc2ccccc2[N+](=O)[O-])[n-]1
inactive: dose: 100.0 mg/kg/injection, schedule: Q01DX001 (ip), vehicle: Klucel (hydroxypropylcellulose) (HPC) 93 % of control | dose: 200.0 mg/kg/injection, schedule: Q01DX001 (ip), vehicle: Klucel (hydroxypropylcellulose) (HPC) 94 % of control | dose: 400.0 mg/kg/injection, schedule: Q01DX001 (ip), vehicle: Klucel (hydroxypropylcellulose) (HPC) 94 % of control

NC(N)=NN=C1CCCCC1
inactive: dose: 15.0 mg/kg/injection, schedule: Q01DX Z (ip), vehicle: saline 92 % of control | dose: 30.0 mg/kg/injection, schedule: Q01DX Z (ip), vehicle: saline 92 % of control | dose: 60.0 mg/kg/injection, schedule: Q01DX Z (ip), vehicle: saline 102 % of control | dose: 60.0 mg/kg/injection, schedule: Q01DX Z (oral), vehicle: saline 105 % of control | dose: 120.0 mg/kg/injection, schedule: Q01DX Z (ip), vehicle: saline 97 % of control | dose: 120.0 mg/kg/injection, schedule: Q01DX Z (oral), vehicle: saline 108 % of control | dose: 240.0 mg/kg/injection, schedule: Q01DX Z (oral), vehicle: saline 100 % of control | dose: 480.0 mg/kg/injection, schedule: Q01DX Z (oral), vehicle: saline 103 % of control

CCOC(=O)C(C(=O)c1ccccc1)c1cc(NS(=O)(=O)c2ccccc2)ccc1O (stereo not drawn)
inactive: dose: 12.5 mg/kg/injection, schedule: Q01DX009 (ip), vehicle: saline with Tween-80 90 % of control | dose: 25.0 mg/kg/injection, schedule: Q01DX009 (ip), vehicle: saline with Tween-80 95 % of control | dose: 50.0 mg/kg/injection, schedule: Q01DX009 (ip), vehicle: saline with Tween-80 94 % of control and 97 % of control | dose: 100.0 mg/kg/injection, schedule: Q01DX009 (ip), vehicle: saline with Tween-80 86 % of control | dose: 100.0 mg/kg/injection, schedule: Q04DX003 (ip), vehicle: saline with Tween-80 91 % of control | dose: 200.0 mg/kg/injection, schedule: Q01DX009 (ip), vehicle: saline with Tween-80 86 % of control

CCCCCCCCCCCCP(=O)(O)O
inactive: [10] 94 % of control | dose: 150.0 mg/kg/injection, schedule: Q01DX001 (ip), vehicle: other 97 % of control

Cc1c[nH]c(=O)c[n+]1[O-]
inactive: [11] 97 % of control | [12] 100 % of control | dose: 400.0 mg/kg/injection, schedule: Q04DX003 (ip), vehicle: saline 100 % of control

O=[N+]([O-])c1ccc(/C=C/c2ccccc2)c(Cl)c1
inactive: [13] 95 % of control | dose: 200.0 mg/kg/injection, schedule: Q01DX001 (ip), vehicle: saline with Tween-80 102 % of control | dose: 400.0 mg/kg/injection, schedule: Q01DX001 (ip), vehicle: saline with Tween-80 95 % of control

CCc1ccc(N=Nc2ccc(Br)cc2)cc1
inactive: dose: 100.0 mg/kg/injection, schedule: Q01DX001 (ip), vehicle: carboxymethylcellulose (CMC) 93 % of control | dose: 200.0 mg/kg/injection, schedule: Q01DX001 (ip), vehicle: carboxymethylcellulose (CMC) 98 % of control | dose: 400.0 mg/kg/injection, schedule: Q01DX001 (ip), vehicle: carboxymethylcellulose (CMC) 98 % of control

CC1=CC(=O)C(c2ccc(O)cc2O)=CC1=O
inactive: [10] 101 % of control

CCC(C)n1ncc2c(N(C)C)ncnc21 (stereo not drawn)
inactive: dose: 50.0 mg/kg/injection, schedule: Q01DX009 (ip), vehicle: saline 103 % of control | dose: 50.0 mg/kg/injection, schedule: Q04DX003 (ip), vehicle: saline 105 % of control | [1] 98 % of control | dose: 100.0 mg/kg/injection, schedule: Q01DX009 (ip), vehicle: saline 115 % of control | [11] 105 % of control | [2] 102 % of control | [12] 107 % of control

CC(C)(C)C1CCS(=O)(=O)CC1.[Cl][Hg][Cl]
inactive: dose: 0.25 mg/kg/injection, schedule: Q01DX009 (ip), vehicle: saline 97 % of control | dose: 0.5 mg/kg/injection, schedule: Q01DX009 (ip), vehicle: saline 98 % of control | dose: 1.0 mg/kg/injection, schedule: Q01DX009 (ip), vehicle: saline 94 % of control

CCCCCCCC(=O)C(C)C
inactive: [7] 95 % of control | [4] 99 % of control | [8] 98 % of control | [5] 100 % of control | [9] 102 % of control | [6] 91 % of control

Cc1ccc(S(=O)(=O)N(CCCc2c(C)nc(N)nc2Nc2ccccc2)c2ccccc2)cc1
inactive: dose: 25.0 mg/kg/injection, schedule: Q01DX001 (ip), vehicle: saline with Tween-80 108 % of control | dose: 50.0 mg/kg/injection, schedule: Q01DX001 (ip), vehicle: saline with Tween-80 92 % of control | [13] 93 % of control
